Where a name gives a salt, the structure may show the parent alone.
Experiments:
Gastric fistula rat = experiment: acute gastric fistula rat test (antisecretory screen); type: in vivo, Female Sprague-Dawley rats; conditions: for inhibition in vivo at 20 mg/kg: intraduodenal, 20 mg/kg I.D., read-out: % Inhibition of gastric secretion; for ED50: po, 1 hr
Protocol: The principal antisecretory screen is the acute gastric fistula rat test which is carried out as follows: Female Sprague-Dawley rats are used for this study. The weights range from 125-250 gms; however, weights in any given test have a range of ±20 gms. The rats are fasted 24 hours before testing, water is given ad lib. At the time of fasting, the rats are placed in individual cages with wide mesh bottoms. This eliminates the problem of cannibalism and coprophagia. On the day of testing, the rats are weighed beforehand to determine the weight range and to allow for even distribution. Surgery is carried out under light ether anesthesia. As soon as the rat is anesthetized, its teeth are removed using a small pinch pliers. A midline incision is made on the abdomen about 11/2 cm long and the stomach is exposed. If, at this point, the stomach is filled with food or fecal material, the rat is discarded except for orally administered rats. In this case, the stomach contents are gently squeezed into the duodenum. Using a 4-0 polyester fiber suture, a purse string stitch is placed on the fundic portion of the stomach taking care to avoid any blood vessels in the area. A small nick is made into the stomach in the center of the purse string and a cannula, consisting of a small vinyl tube with a flange on one end, is put into the stomach and the purse string is closed tightly around the flange. Immediately following this, the rat is dosed intraduodenally using a volume of 0.5 ml per 100 gm body weight. The abdominal wall and skin are closed simultaneously with three to four 18 mm wound clips. The rat is then placed in a box containing a longitudinal slit which allows the cannula to hang freely and the rat is able to move about unencumbered. At the completion of the procedure, the time is marked 0 minutes. The rat is allowed to stabilize for 30 minutes, at which time the collection tube is discarded and replaced with a clean collection tube to receive the gastric juice. Only a one-hour collection is made for a screening study. In evaluation studies, one- and two-hour collections are made. At the end of the study, the cannula is pulled out and the rat is sacrificed. The gastric contents collected are drained into a centrifuge tube and centrifuged to pack down the sediment. The volume is read and a 1 ml aliquot of the supernatant is put into a beaker containing distilled water and titrated to pH 7 using 0.01 N NaOH. Mean values are determined for volume, titratable acid and total acid output where volume equals total ml of gastric juice minus sediment, titratable acid (mEq/1) equals amount of 0.01 N NaOH needed to titrate the acid to pH 7 times 10 and total acid output equals titratable acid times volume. Results are reported in percent inhibition over control values. In studies using oral administration, the drugs are dosed in a volume of 1 ml per 100 gm body weight one hour before surgery (pretreatment equals 90 minutes). In subcutaneous studies, the drug may be given immediately after the surgical procedure (pretreatment equals 30 minutes) or after the 30-minute stabilization period when the collection tube is changed (pretreatment time equals 0 minutes). The volume used in subcutaneous studies is 0.2 ml per 100 gm body weight.

[1] = system: Spontaneously hypertensive rat; experiment: Rodent Antihypertensive Screen (arterial pressure and heart rate, aortic cannula); type: in vivo, adult spontaneously hypertensive rats (Charles River); conditions: for Duration / Effect on heart rate / Max. decr. in MAP: spontaneously hypertensive rat; for antihypertensive activity compared with corresponding rearranged N-aryl-N'-(4,5-dihydro-1H-imidazol-2-yl) ureas IV: versus corresponding ureas IV
Text: This test evaluates compounds for effects on arterial pressure and heart rate. In this test, the arterial pressure of adult spontaneously hypertensive rats (Charles River) is monitored directly via an aortic cannula. Rats are anesthetized with an inhalation anesthetic (methoxyflurane). The left carotid artery is isolated and cannulated. The tip of the cannula is advanced to the aorta and the cannula is exteriorized behind the neck at the level of the scapula. Animals are placed in individual cages and allowed to recover from the anesthetic and are kept unrestrained. The arterial cannula is connected to the pressure transducer which is attached to the recorder. Heart rate is determined from the arterial pressure recording. The test compounds are administered either orally (p.o.) by gavage or by intraperitoneal (i.p.) injection. The arterial pressure and heart rate are monitored for a minumum of 24 hours. A test compound is considered to be active as an antihypertensive agent if the mean arterial pressure (MAP) indicates a fall of >15 mm of Hg. Each animal serves as his own control. The results of this test employing at least 3 rats per dose level for each compound and performed with various compounds of the present invention are shown in Table I.

Compound | inhibition in vivo at 20 mg/kg (Gastric fistula rat) [%] | ED50 (Gastric fistula rat) [mg/kg] | Duration ([1]; 35 mg/kg p.o.) [h] | Effect on heart rate ([1]; 35 mg/kg p.o.) [beats/min] | Max. decr. in MAP ([1]; 35 mg/kg p.o.) [mm Hg] | antihypertensive activity compared with corresponding rearranged N-aryl-N'-(4,5-dihydro-1H-imidazol-2-yl) ureas IV [1] | Duration ([1]; 100 mg/kg p.o.) [h] | Effect on heart rate ([1]; 100 mg/kg p.o.) [beats/min] | Max. decr. in MAP ([1]; 100 mg/kg p.o.) [mm Hg]
CCc1cccc(C)c1NC(=O)N1CCN=C1N.Cl [Example 17, 2-Amino-4,5-dihydro-N-(2-ethyl-6-methylphenyl)-1H-imidazole-1carboxamide Monohydrochloride] | 91 | 24.5 |  |  |  |  |  |  | 
NC1=NCCN1C(=O)Nc1cccc(C(F)(F)F)c1 [Example 26, 2-Amino-4,5-dihydro-N-(3-trifluoromethylphenyl)-1H-imidazole-1-carboxamide Monohydrochloride Hemihydrate] | 99 |  | 2.0 | -71 | 24 |  |  |  | 
Cl.NC1=NCCN1C(=O)Nc1c(Cl)cccc1Cl [Example 1, 2-Amino-N-(2,6-dichlorophenyl)-4,5-dihydro-1H-imidazole-1-carboxamide Monohydrochloride] | 62 |  | 0.5 | -48 | 32 | significantly less antihypertensive activity |  |  | 
Cl.NC1=NCCN1C(=O)Nc1cccc(Cl)c1Cl [Example 10, 2-Amino-N-(2,3-dichlorophenyl)-4,5-dihydro-1H-imidazole-1-carboxamide Monohydrochloride] | 70 |  | 1.0 | -66 | 19 |  |  |  | 
NC1=NCCN1C(=O)Nc1cc(Cl)cc(Cl)c1 [Example 6, 2-Amino-N-(3,5-dichlorophenyl)-4,5-dihydro-1H-imidazole-1-carboxamide Monohydrochloride Hydrate (16:1)] | 75 | 22.3 | 1.0 | -21 | 22 |  |  |  | 
Cl.NC1=NCCN1C(=O)Nc1ccccc1C(F)(F)F [Example 25, 2-Amino-4,5-dihydro-N-(2-trifluoromethylphenyl)-1H-imidazole-1-carboxamide Monohydrochloride] |  |  | 0.5 | -21 | 32 |  |  |  | 
COc1ccc(NC(=O)N2CCN=C2N)cc1.Cl [Example 20, 2-Amino-4,5-dihydro-N-(4-methoxyphenyl)-1H-imidazole-1carboxamide Monohydrochloride] |  |  | 1.0 | -38 | 16 |  |  |  | 
Cc1ccccc1NC(=O)N1CCN=C1N [Example 24, 2-Amino-4,5-dihydro-N-(2-methylphenyl)-1H-imidazole-1-carboxamide Monohydrochloride] | 65 |  |  |  |  |  |  |  | 
Cc1cccc(Cl)c1NC(=O)N1CCN=C1N [Example 15, 2-Amino-N-(2-chloro-6-methylphenyl)-4,5-dihydro-1H-imidazole-1-carboxamide Monohydrochloride Hydrate (8:1)] | 77 |  |  |  |  |  |  |  | 
Cc1ccc(NC(=O)N2CCN=C2N)cc1 [Example 2, 2-Amino-4,5-dihydro-N-(4-methylphenyl)-1H-imidizole-1-carboxamide Monohydrochloride Hydrate (4:1)] | 99 | 4.6 | 6.0 | -162 | 54 | more potent antihypertensive activity |  |  | 
NC1=NCCN1C(=O)Nc1ccc(Cl)cc1 [Example 27, 2-Amino-N-(4-chlorophenyl)-4,5-dihydro-1H-imidazole-1-carboxamide Monohydrochloride Hydrate (17:1)] | 95 | 29.3 | 15 | -66 | 41 | more potent antihypertensive activity |  |  | 
Cl.NC1=NCCN1C(=O)Nc1c(Cl)cc(Cl)cc1Cl [Example 12, 2-Amino-4,5-dihydro-N-(2,4,6-trichlorophenyl)-1H-imidazole-1-carboxamide Monohydrochloride] | 97 |  | 0.5 | -39 | 18 |  |  |  | 
Cl.NC1=NCCN1C(=O)Nc1ccc(C(F)(F)F)cc1 [Example 14, 2-Amino-4,5-dihydro-N-(4-trifluoromethylphenyl)-1H-imidazole-1-carboxamide Monohydrochloride] | 70 | 35.5 | 5.0 | -98 | 50 |  |  |  | 
Cl.NC1=NCCN1C(=O)Nc1cccc(Cl)c1.O [Example 11, 2-Amino-N-(3-chlorophenyl)-4,5-dihydro-1H-imidazole-1carboxamide Monohydrochloride Monohydrate] | 77 | 14.2 | 0.5 | -26 | 20 |  |  |  | 
COc1ccc(NC(=O)N2CCN=C2N)cc1OC [Example 4, 2-Amino-N-(3,4-dimethoxyphenyl)-4,5-dihydro-1H-imidazole-1-carboxamide Monohydrochloride Hydrate (4:1)] |  |  |  |  |  |  | 11 | -215 | 47
NC1=NCCN1C(=O)Nc1ccccc1Cl [Example 3, 2-Amino-N-(2-chlorophenyl)-4,5-dihydro-1H-imidazole-1-carboxamide Monohydrochloride] | 82 |  | 2.0 | -77 | 35 |  |  |  | 
NC1=NCCN1C(=O)Nc1c(Br)cccc1Br [Example 16, 2-Amino-4,5-dihydro-N-(2,6-dibromophenyl)-1H-imidazole-1-carboxamide Monohydrochloride] | 64 |  |  |  |  |  |  |  | 
Cl.NC1=NCCN1C(=O)Nc1ccc(Cl)cc1Cl [Example 9, 2-Amino-N-(2,4-dichlorophenyl)-4,5-dihydro-1H-imidazole-1carboxamide Monohydrochloride] | 71 | 14.8 | 2.0 | -49 | 33 |  |  |  | 
COc1cccc(NC(=O)N2CCN=C2N)c1 [Example 19, 2-Amino-4,5-dihydro-N-(3-methoxyphenyl)-1H-imidazole-1carboxamide Monohydrochloride Hydrate (5:1)] | 74 |  |  |  |  |  |  |  | 
Cc1cccc(C)c1NC(=O)N1CCN=C1N.Cl [Example 5, 2-Amino-N-(2,6-dimethylphenyl)-4,5-dihydro-1H-imidazole-1-carboxamide Monohydrochloride] | 88 |  | 1.0 | -27 | 23 | significantly less antihypertensive activity |  |  | 
NC1=NCCN1C(=O)Nc1ccccc1 [Example 23, 2-Amino-4,5-dihydro-N-phenyl-1H-imidazole-1-carboxamide Monohydrochloride Hydrate (5:3)] | 92 |  |  |  |  |  |  |  | 
Cl.NC1=NCCN1C(=O)Nc1cc(Cl)ccc1Cl [Example 7, 2-Amino-N-(2,5-dichlorophenyl)-4,5-dihydro-1H-imidazole-1carboxamide Monohydrochloride] |  |  | 1.0 | -48 | 37 |  |  |  | 

Reference: patent US4618682A, “2-amino-4,5-dihydro-1H-imidazole-1-carboxanilides” (McNeilab, Inc., priority 1985, dated 1986)
